# From patent publication US20130029928A1 (priority 2010, published 2013)
# Read-outs that look alike come from different tables or passages of the source.
# Assay: Phase I study CXR1002-001: plasma pharmacokinetics (LC-MS/MS)
# Type: in vivo, human
# Conditions: for concentration at 528 hr / concentration at 528 h: Time 528 hr (Day 23); for concentration at 672 hr / concentration at 672 h: Time 672 hr (Day 29); for concentration at 696 hr / concentration at 696 h: Time 696 hr (Day 30); for concentration at 840 hr / concentration at 840 h: Time 840 hr (Day 36); for concentration at 864 hr / concentration at 864 h: Time 864 hr (Day 37); for concentration at 24 hr / concentration at 24 h: Time 24 hr (Day 2); for concentration at 168 hr / concentration at 168 h: Time 168 hr (Day 8); for concentration at 336 hr / concentration at 336 h: Time 336 hr (Day 15); for concentration at 360 hr / concentration at 360 h: Time 360 hr (Day 16)
# Source text: PK samples, PD (fasting) samples, blood glucose, and blood triglyceride samples, were taken over a 6-week period.
# Dose limiting toxicity (DLT) will be based on the toxicity assessments over the first 3-week period of the repeat dosing schedule. PK samples (single blood sample) were taken on the following basis: • Every 6 weeks during the repeat dosing phase • If dosing is interrupted or stopped, samples will be taken at intervals according to patient convenience • PK sampling for safety evaluation may take place at any time, as clinically indicated
# Plasma samples were collected after the single 50 mg dose at the following timepoints: Pre-dose, and then 0.25, 0.5, 0.75, 1, 1.5, 2, 3, 4, 6, 24, 48, and 72 hours after administration and then once weekly at weeks 2, 3, 4, 5, and 6 (days 8, 15, 22, 29, and 36). For patients treated with the weekly repeat dose, plasma samples were collected at the following timepoints: Pre-dose and then 2, 3, 4 and 24 hours after administration for a total of 6 weeks. Thereafter a single sample was collected every 6 weeks for monitoring of exposure during long term treatment. Plasma samples were processed at site and stored at −80° C. prior to batch shipment to the analytical laboratory.
# [1] = human, plasma, po, 1000 mg, Patient 041, 1000 mg weekly oral dose, read-out: Concentration (plasma level)
# [2] = human, plasma, po, 1000 mg, Patient 042, 1000 mg weekly oral dose, read-out: Concentration (plasma level)
# [3] = human, plasma, po, 1200 mg, Patient 036, 1200 mg weekly oral dose, read-out: Concentration (plasma level)
# [4] = human, plasma, po, 1200 mg, Patient 037, 1200 mg weekly oral dose, read-out: Concentration (plasma level)
# [5] = human, plasma, po, 1200 mg, Patient 038, 1200 mg weekly oral dose, read-out: Concentration (plasma level)
smiles,measurement,setting,value
O=C(O)C(F)(F)C(F)(F)C(F)(F)C(F)(F)C(F)(F)C(F)(F)C(F)(F)F [CXR1002],concentration at 528 hr,[1],703 µM
same,concentration at 672 hr,[1],670 µM
same,concentration at 674 hr,[1],546 µM
same,concentration at 675 hr,[1],740 µM
same,concentration at 676 hr,"human, plasma, po, 1000 mg, Patient 041, 1000 mg weekly oral dose, Time 676 hr, read-out: Concentration (plasma level)",802 µM
same,concentration at 696 hr,[1],786 µM
same,concentration at 840 hr,[1],715 µM
same,concentration at 842 hr,[1],738 µM
same,concentration at 843 hr,"human, plasma, po, 1000 mg, Patient 041, 1000 mg weekly oral dose, Time 843 hr, read-out: Concentration (plasma level)",1010 µM
same,concentration at 864 hr,[1],1210 µM
same,concentration at 2 hr,[2],272 µM
same,concentration at 3 hr,[2],359 µM
same,concentration at 4 hr,[2],281 µM
same,concentration at 24 hr,[2],239 µM
same,concentration at 168 hr,[2],251 µM
same,concentration at 170 hr,"human, plasma, po, 1000 mg, Patient 042, 1000 mg weekly oral dose, Time 170 hr, read-out: Concentration (plasma level)",391 µM
same,concentration at 171 hr,"human, plasma, po, 1000 mg, Patient 042, 1000 mg weekly oral dose, Time 171 hr, read-out: Concentration (plasma level)",461 µM
same,concentration at 172 hr,"human, plasma, po, 1000 mg, Patient 042, 1000 mg weekly oral dose, Time 172 hr, read-out: Concentration (plasma level)",436 µM
same,concentration at 192 hr,"human, plasma, po, 1000 mg, Patient 042, 1000 mg weekly oral dose, Time 192 hr (Day 9), read-out: Concentration (plasma level)",502 µM
same,concentration at 336 hr,[2],586 µM
same,concentration at 338 hr,[2],645 µM
same,concentration at 339 hr,[2],675 µM
same,concentration at 340 hr,[2],636 µM
same,concentration at 360 hr,[2],651 µM
same,concentration at 504 hr,"human, plasma, po, 1000 mg, Patient 042, 1000 mg weekly oral dose, Time 504 hr (Day 22), read-out: Concentration (plasma level)",765 µM
same,concentration at 506 hr,"human, plasma, po, 1000 mg, Patient 042, 1000 mg weekly oral dose, Time 506 hr, read-out: Concentration (plasma level)",872 µM
same,concentration at 507 hr,"human, plasma, po, 1000 mg, Patient 042, 1000 mg weekly oral dose, Time 507 hr, read-out: Concentration (plasma level)",952 µM
same,concentration at 508 hr,"human, plasma, po, 1000 mg, Patient 042, 1000 mg weekly oral dose, Time 508 hr, read-out: Concentration (plasma level)",987 µM
same,concentration at 528 hr,[2],1230 µM
same,concentration at 672 hr,[2],1040 µM
same,concentration at 674 hr,[2],1180 µM
same,concentration at 675 hr,[2],1190 µM
same,concentration at 696 hr,[2],1280 µM
same,concentration at 840 hr,[2],1250 µM
same,concentration at 842 hr,[2],1140 µM
same,concentration at 843 hr,"human, plasma, po, 1000 mg, Patient 042, 1000 mg weekly oral dose, Time 843 hr, read-out: Concentration (plasma level)",1180 µM
same,concentration at 844 hr,"human, plasma, po, 1000 mg, Patient 042, 1000 mg weekly oral dose, Time 844 hr, read-out: Concentration (plasma level)",1160 µM
same,concentration at 864 hr,[2],1250 µM
same,concentration at 2 hr,[3],443 µM
same,concentration at 3 hr,[3],431 µM
same,concentration at 4 hr,[3],361 µM
same,concentration at 24 hr,[3],708 µM
same,concentration at 168 hr,[3],286 µM
same,concentration at 170 h,"human, plasma, po, 1200 mg, Patient 036, 1200 mg weekly oral dose, Time 170 hr, read-out: Concentration (plasma level)",680 µM
same,concentration at 171 h,"human, plasma, po, 1200 mg, Patient 036, 1200 mg weekly oral dose, Time 171 hr, read-out: Concentration (plasma level)",678 µM
same,concentration at 172 h,"human, plasma, po, 1200 mg, Patient 036, 1200 mg weekly oral dose, Time 172 hr, read-out: Concentration (plasma level)",665 µM
same,concentration at 192 h,"human, plasma, po, 1200 mg, Patient 036, 1200 mg weekly oral dose, Time 192 hr (Day 9), read-out: Concentration (plasma level)",295 µM
same,concentration at 336 hr,[3],557 µM
same,concentration at 338 hr,[3],840 µM
same,concentration at 339 hr,[3],866 µM
same,concentration at 340 hr,[3],930 µM
same,concentration at 360 hr,[3],657 µM
same,concentration at 504 h,"human, plasma, po, 1200 mg, Patient 036, 1200 mg weekly oral dose, Time 504 hr (Day 22), read-out: Concentration (plasma level)",969 µM
same,concentration at 506 h,"human, plasma, po, 1200 mg, Patient 036, 1200 mg weekly oral dose, Time 506 hr, read-out: Concentration (plasma level)",1140 µM
same,concentration at 507 h,"human, plasma, po, 1200 mg, Patient 036, 1200 mg weekly oral dose, Time 507 hr, read-out: Concentration (plasma level)",1130 µM
same,concentration at 508 h,"human, plasma, po, 1200 mg, Patient 036, 1200 mg weekly oral dose, Time 508 hr, read-out: Concentration (plasma level)",1120 µM
same,concentration at 840 h,[3],948 µM
same,concentration at 842 h,[3],1250 µM
same,concentration at 844 h,"human, plasma, po, 1200 mg, Patient 036, 1200 mg weekly oral dose, Time 844 hr, read-out: Concentration (plasma level)",1230 µM
same,concentration at 864 h,[3],1060 µM
same,concentration at 2 h,[4],256 µM
same,concentration at 3 h,[4],302 µM
same,concentration at 4 h,[4],278 µM
same,concentration at 24 h,[4],418 µM
same,concentration at 168 h,[4],422 µM
same,concentration at 170 h,"human, plasma, po, 1200 mg, Patient 037, 1200 mg weekly oral dose, Time 170 hr, read-out: Concentration (plasma level)",634 µM
same,concentration at 171 h,"human, plasma, po, 1200 mg, Patient 037, 1200 mg weekly oral dose, Time 171 hr, read-out: Concentration (plasma level)",660 µM
same,concentration at 172 h,"human, plasma, po, 1200 mg, Patient 037, 1200 mg weekly oral dose, Time 172 hr, read-out: Concentration (plasma level)",712 µM
same,concentration at 192 h,"human, plasma, po, 1200 mg, Patient 037, 1200 mg weekly oral dose, Time 192 hr (Day 9), read-out: Concentration (plasma level)",841 µM
same,concentration at 336 h,[4],780 µM
same,concentration at 338 h,[4],1050 µM
same,concentration at 339 h,[4],1040 µM
same,concentration at 340 h,[4],1030 µM
same,concentration at 360 h,[4],1140 µM
same,concentration at 504 h,"human, plasma, po, 1200 mg, Patient 037, 1200 mg weekly oral dose, Time 504 hr (Day 22), read-out: Concentration (plasma level)",1100 µM
same,concentration at 506 h,"human, plasma, po, 1200 mg, Patient 037, 1200 mg weekly oral dose, Time 506 hr, read-out: Concentration (plasma level)",1200 µM
same,concentration at 507 h,"human, plasma, po, 1200 mg, Patient 037, 1200 mg weekly oral dose, Time 507 hr, read-out: Concentration (plasma level)",1220 µM
same,concentration at 508 h,"human, plasma, po, 1200 mg, Patient 037, 1200 mg weekly oral dose, Time 508 hr, read-out: Concentration (plasma level)",1390 µM
same,concentration at 528 h,[4],1390 µM
same,concentration at 672 h,[4],1320 µM
same,concentration at 674 h,[4],1460 µM
same,concentration at 675 h,[4],1460 µM
same,concentration at 676 h,"human, plasma, po, 1200 mg, Patient 037, 1200 mg weekly oral dose, Time 676 hr, read-out: Concentration (plasma level)",1450 µM
same,concentration at 696 h,[4],1530 µM
same,concentration at 2 h,[5],313 µM
same,concentration at 3 h,[5],314 µM
same,concentration at 4 h,[5],298 µM
same,concentration at 24 h,[5],242 µM
same,concentration at 168 h,[5],268 µM
same,concentration at 170 h,"human, plasma, po, 1200 mg, Patient 038, 1200 mg weekly oral dose, Time 170 hr, read-out: Concentration (plasma level)",502 µM
same,concentration at 171 h,"human, plasma, po, 1200 mg, Patient 038, 1200 mg weekly oral dose, Time 171 hr, read-out: Concentration (plasma level)",481 µM
same,concentration at 172 h,"human, plasma, po, 1200 mg, Patient 038, 1200 mg weekly oral dose, Time 172 hr, read-out: Concentration (plasma level)",538 µM
same,concentration at 192 h,"human, plasma, po, 1200 mg, Patient 038, 1200 mg weekly oral dose, Time 192 hr (Day 9), read-out: Concentration (plasma level)",493 µM
same,concentration at 336 h,[5],462 µM
same,concentration at 338 h,[5],808 µM
same,concentration at 339 h,[5],682 µM
same,concentration at 340 h,[5],672 µM
same,concentration at 360 h,[5],749 µM
same,concentration at 504 h,"human, plasma, po, 1200 mg, Patient 038, 1200 mg weekly oral dose, Time 504 hr (Day 22), read-out: Concentration (plasma level)",566 µM
same,concentration at 506 h,"human, plasma, po, 1200 mg, Patient 038, 1200 mg weekly oral dose, Time 506 hr, read-out: Concentration (plasma level)",658 µM
same,concentration at 507 h,"human, plasma, po, 1200 mg, Patient 038, 1200 mg weekly oral dose, Time 507 hr, read-out: Concentration (plasma level)",788 µM
same,concentration at 508 h,"human, plasma, po, 1200 mg, Patient 038, 1200 mg weekly oral dose, Time 508 hr, read-out: Concentration (plasma level)",699 µM
same,concentration at 528 h,[5],746 µM
same,concentration at 672 h,[5],682 µM
same,concentration at 674 h,[5],932 µM
same,concentration at 675 h,[5],885 µM
same,concentration at 676 h,"human, plasma, po, 1200 mg, Patient 038, 1200 mg weekly oral dose, Time 676 hr, read-out: Concentration (plasma level)",708 µM
same,concentration at 696 h,[5],802 µM
same,concentration at 840 h,[5],687 µM
same,concentration at 842 h,[5],895 µM
same,concentration at 843 h,"human, plasma, po, 1200 mg, Patient 038, 1200 mg weekly oral dose, Time 843 hr, read-out: Concentration (plasma level)",955 µM
same,concentration at 844 h,"human, plasma, po, 1200 mg, Patient 038, 1200 mg weekly oral dose, Time 844 hr, read-out: Concentration (plasma level)",914 µM
same,concentration at 864 h,[5],958 µM
same,gender difference in exposure,in vivo,no gender difference
same,accumulation,weekly dose,accumulates
same,maximal blood level reached,weekly repeat dose (Pharmacokinetic Summary),617 µM
